Conditions in all cases: relative to thienamycin (=1.0)
For data set [1], the system named is Dehydropeptidase-I (DHP-I). Description: Dehydropeptidase-I susceptibility (method of Kropp et al.). In kind it is in vitro ADME. From the text: Antibacterial compounds of Formula I are of the broad class known as carbapenems or 1-carbadethiapenems. Certain of these carbapenems are susceptible to attack by a renal enzyme known as dehydropeptidase (DHP). This attack or degradation may reduce the efficacy of the carbapenem antibacterial agent. Inhibitors of DHP and their use with carbapenem antibacterial agents are disclosed in the prior art. See European Patent Applications No. 79102616.4 filed July 24, 1979 (Publication No. 0 010 573); 79102615.6, filed July 24, 1979 (Publication No. 0 007 614); and 82107174.3, filed August 9, 1982 (Publication No. 0 072 014).
(§1) Antibacterial potencies were determined using standard agar disc diffusion assays and are reported relative to thienamycin (=1.0). Dehydropeptidase-I (DHP-I) susceptibilities were determined by the method of Kropp et al., Antimicrobial Agents Chemother., 22, 62-70 (1982), and are reported relative to thienamycin (=1.0).

Another data set concerns Ps. aeruginosa. Description: Agar disc-diffusion assay, relative antibacterial potency. In kind it is cell-based. The procedure:
(§2) The antibacterial activities of the compounds of this invention illustrated in the examples were determined using the following method.
(§3) Antibacterial activities were determined by the disc-diffusion assay described by Bauer et al., Amer. J. Clin. Pathol., 45, 493 (1966), except that an agar thickness of 0.2 cm was used. Thienamycin or imipenem was used as the internal standard. For maximum reproducibility, the inner, completely clear region of the zone of inhibition was measured. Inhibiting concentration at the edge of the zone was computed for each test compound using equation (3) (rearranged) reported by Humphrey and Lightbown in J. Gen. Microbiol., 7, 129 (1952), which takes into account differing molecular weights and resulting diffusion constants. Ratios of the geometric means of the inhibitory concentrations to that of thienamycin were determined for each test compound.
as §1

The test system of another data set is Enterobacter. The description is as above. In kind it is cell-based. As to the method:
as §2, §3, §1

The subject of another data set is S. aureus. The description is as above. In kind it is cell-based. The procedure: as §2, §3, §1
The next data set deals with E. coli. Described as above. The format is cell-based. The procedure:
as §2, §3, §1

In the next data set the test system is Proteus (Ind. + and -). The description is as above. The format is cell-based. As to the method: as §2, §3, §1
The test system of a further data set is Enterococcus. The data set is described as above. In kind it is cell-based. The procedure:
as §2, §3, §1

Another data set deals with Serratia. The data set is described as above. The format is cell-based. As to the method:
as §2, §3, §1

The test system of a further data set is Klebsiella. The data set is described as above. The format is cell-based. The procedure: as §2, §3, §1

For `C[C@@H](O)[C@H]1C(=O)N2C(C(=O)O)=C(CO)[C@H](C)[C@H]12` [Example 1, Potassium (1S,1′R,5R,6S)-2-hydroxymethyl-6-(1′-hydroxyethyl)-1-methylcarbapen-2-em-3-carboxylate], the DHP-I susceptibility in data set [1] was determined as 0.76. Besides, the “Relative Antibacterial Potencies” value is 0.2 in the data set on Ps. aeruginosa; 3.7 with Enterobacter; 0.4 with S. aureus; 2.3 in the data set on E. coli; 3.0 in the data set with Proteus (Ind. + and -); 1.0 with Enterococcus. Also, the entries for the “Relative Antibacterial Potencies” value in the data set with Serratia and in the data set on Klebsiella were 4.3 and 2.0, respectively.
`CC(=O)OCC1=C(C(=O)O)N2C(=O)[C@H]([C@@H](C)O)[C@H]2[C@H]1C` [Example 2, Potassium (1S,1′R,5R,6S)-2-acetoxymethyl-6-(1′-hydroxyethyl)-1-methylcarbapen-2-em-3-carboxylate] yielded a DHP-I susceptibility in data set [1] of 0.52. Also, the “Relative Antibacterial Potencies” value with Ps. aeruginosa was determined as 0.09; in the data set with Enterobacter, 7.0; in the data set on S. aureus, 0.7; with E. coli, 4.0; in the data set on Proteus (Ind. + and -) it was 27.9; in the data set on Enterococcus, 2.8. Also, the “Relative Antibacterial Potencies” value with Serratia turned out to be 12.1; with Klebsiella, 2.5.
In the case of `C[C@@H](O)[C@H]1C(=O)N2C(C(=O)O)=C(CN=[N+]=[N-])[C@H](C)[C@H]12` [Example 3, Potassium (1S,1′R,5R,6S)-2-azidomethyl-6-(1′-hydroxyethyl)-1-methylcarbapen-2-em-3-carboxylate], the DHP-I susceptibility in data set [1] is given as 7.29. For the same compound, the “Relative Antibacterial Potencies” value is listed as 0.06 in the data set with Ps. aeruginosa; 11.3 in the data set on Enterobacter; 1.4 with S. aureus; 9.2 with E. coli; 29.9 with Proteus (Ind. + and -); 2.0 with Enterococcus. The “Relative Antibacterial Potencies” value is given as 22.6 in the data set with Serratia and 4.3 in the data set with Klebsiella.
With `C[C@@H](O)[C@H]1C(=O)N2C(C(=O)O)=C(COC(N)=O)[C@H](C)[C@H]12` [Example 4, Potassium (1S,1′R,5R,6S)-2-aminocarbonyloxy methyl-6-(1′-hydroxyethyl)-1-methylcarbapen-2-em-3-carboxylate], the DHP-I susceptibility in data set [1] was found to be 0.39. In addition, the “Relative Antibacterial Potencies” value in the data set on Ps. aeruginosa was determined as 0.4; in the data set with Enterobacter it was 22.6; in the data set on S. aureus, 0.9; in the data set on E. coli, 6.1; with Proteus (Ind. + and -), 14.9; in the data set on Enterococcus, 5.7. The results for the “Relative Antibacterial Potencies” value in the data set with Serratia and in the data set on Klebsiella were 32 and 7.0, respectively.
`CNC(=O)OCC1=C(C(=O)O)N2C(=O)[C@H]([C@@H](C)O)[C@H]2[C@H]1C` [Example 5, Potassium (1S,1′R,5R,6S)-2-methylaminocarbonyl oxymethyl-6-(1′-hydroxyethyl)-1-methylcarbapen-2-em-3-carboxylate] showed a DHP-I susceptibility in data set [1] of 0.59. Also, the “Relative Antibacterial Potencies” value is reported as 0.2 with Ps. aeruginosa; 9.8 in the data set on Enterobacter; 0.8 with S. aureus; 5.7 in the data set with E. coli; 16 with Proteus (Ind. + and -); 3.7 in the data set with Enterococcus. Moreover, the “Relative Antibacterial Potencies” value in the data set on Serratia was found to be 16; in the data set with Klebsiella, 7.0.
The compound `C[C@@H](O)[C@H]1C(=O)N2C(C(=O)O)=C(COC(=O)Nc3ccccc3)[C@H](C)[C@H]12` [Example 6, Potassium (1S,1′R,5R,6S)-2-phenylaminocarbonyloxymethyl-6-(1′-hydroxyethyl)-1-methylcarbapen-2-em-3-carboxylate] registered a DHP-I susceptibility in data set [1] of 1.35. Further, the “Relative Antibacterial Potencies” value with Ps. aeruginosa worked out at 0.03; with Enterobacter it was 0.2; in the data set on S. aureus, 1.2; in the data set on E. coli it was 0.6; in the data set with Proteus (Ind. + and -) it was 4.9; with Enterococcus, 2.8. Moreover, the “Relative Antibacterial Potencies” value is given as 0.3 in the data set with Serratia and 0.2 in the data set on Klebsiella.
In turn, `C[C@@H](O)[C@H]1C(=O)N2C(C(=O)O)=C(COC(=O)N(C)C)[C@H](C)[C@H]12` [Example 7, Potassium (1S,1′R,5R,6S)-2-dimethylamino carbonyloxymethyl-6-(1′-hydroxyethyl)-1-methylcarbapen-2-em-3-carboxylate] displayed a DHP-I susceptibility in data set [1] of 0.29. Moreover, the “Relative Antibacterial Potencies” value in the data set with Ps. aeruginosa was found to be 0.04; with Enterobacter it was 0.8; in the data set on S. aureus it was 1.4; in the data set with E. coli, 0.6; in the data set on Proteus (Ind. + and -), 11.3; in the data set on Enterococcus, 1.2. For the same compound, the “Relative Antibacterial Potencies” value with Serratia was 1.4; with Klebsiella it was 0.4.
In the case of `C[C@@H](O)[C@H]1C(=O)N2C(C(=O)[O-])=C(COC(=O)NCC[n+]3ccccc3)[C@H](C)[C@H]12` [Example 8, (1S,1′R,5R,6S)-6-(1′-hydroxyethyl)-1-methyl-2-(2˝-pyridiniumethylaminocarbonyloxymethyl)carbapen-2-em-3-carboxylic acid], the DHP-I susceptibility in [1] came out at 0.05. Also, the “Relative Antibacterial Potencies” value is recorded as 0.33 in the data set on Ps. aeruginosa; 2.1 in the data set with Enterobacter; 0.87 in the data set with S. aureus; 0.93 in the data set on E. coli; 2.5 in the data set with Proteus (Ind. + and -); 2.3 with Enterococcus. Also, the “Relative Antibacterial Potencies” value with Serratia is reported as 2.1; in the data set on Klebsiella it was 1.1.
In data set [1], `C[C@@H](O)[C@H]1C(=O)N2C(C(=O)O)=C(CN)[C@H](C)[C@H]12` [Example 9, (1S,1′R,5R,6S)-2-aminomethyl-6-(1′-hydroxyethyl)-1-methylcarbapen-2-em-3-carboxylic acid] registered a DHP-I susceptibility of 0.06. In addition, the “Relative Antibacterial Potencies” value was 0.4 in the data set with Ps. aeruginosa; 0.3 with Enterobacter; 0.6 in the data set with S. aureus; 0.2 in the data set with E. coli; 0.2 with Proteus (Ind. + and -); 0.3 with Enterococcus. In addition, the “Relative Antibacterial Potencies” value in the data set on Serratia and in the data set on Klebsiella was 0.2 each time.

The record behind these values is patent EP0292191A1, “2-(Substituted methyl)-1-alkylcarbapenem derivatives” (Merck & Co., Inc., priority 1987, dated 1988).
